Test results reported in patent US20240425630A1, “POLYMER DISPERSION COMPOSITION” (Dow Global Technologies LLC, priority 2021, published 2024).
Where two headings read alike, the source gives them in different places.

Legend:
[1] = Surfactant pKaH by acid-base titration
Source text: Surfactant pKaH values were either collected from literature sources or measured according to the method described herein. The surfactant (1 g) was mixed with deionized water (60 g). Next, preparation steps were taken to convert all of the surfactants to their respective salt forms. Surfactants which are already in fully neutralized salt form (e.g., Geropon CG 3S, Geropon LG 3S, and Aminosyl SLG) were titrated “as is” (i.e., as received from the supplier). Surfactants in acid form were mixed with enough aqueous 0.5 M KOH (potassium hydroxide) to increase the solution pH to a pH of 10. Sodium lauroyl lactylate (Capmul S12L, 1 g) was mixed with 1.4 g TERGITOL™15-S-40 (70%), followed by enough aqueous 0.5 M KOH (potassium hydroxide) to increase the solution pH to a pH of 10. After the respective preparation steps above, the surfactant solutions were titrated with 0.5 M HCl to pH 2 while recording the pH and the amount of 0.5 M HCl added using a titrator, Mettler Toledo T70.

[2] = cited from earlier work
[3] = literature data (footnotes of Table II)

Molecule: CCCCCCCCCCCC(=O)N(C)CC(=O)O [N-Lauroyl sarcosine]
- pKaH [1]: 5.3

Molecule: CCCCCCCC/C=C\CCCCCCCC(=O)O [Oleic acid (C18:1 cis-9), Oleic acid]
- pKaH [2, 3]: 9.85

Molecule: CCCCCCCCCC(=O)O [Capric acid (C10), Capric acid]
- pKaH [2, 3]: 7.1-7.3

Molecule: CCCCCCCCCCCC(=O)OC(C)C(=O)OC(C)C(=O)[O-].[Na+] (stereo not shown) [Sodium lauroyl lactylate]
- pKaH ([1]; titrated with 0.5 M HCl, pH at mid-point to the equivalence point): 5.25

Molecule: CCCCCCCCCCCCCC(=O)O [Myristic acid (C14), Myristic acid]
- pKaH [2, 3]: 8.1-8.2

Molecule: sodium dodecylbenzenesulfonate
- pKaH ([2]; stated in the discussion, no source given): less than 2.6

Molecule: CCCCCCCCCCCCCCCC(=O)O [Palmitic acid (C16), Palmitic acid]
- pKaH [2, 3]: 8.6-8.8

Molecule: CCCCCCCC(=O)O [n-octanoic acid]
- pKaH [2, 3]: 6.3-6.5

Molecule: CCCCCCCCCCCC(=O)O [Lauric acid (C12), Lauric acid]
- pKaH [2, 3]: 7.5

Molecule: CCCCCCCCCCCCCCCCCC(=O)O [Stearic acid (C18), Stearic acid]
- pKaH [2, 3]: 10.15
